Results reported in patent US4191688A, “Amides of leurosine, leuroformine, desacetylleurosine and desacetylleuroformine” (Eli Lilly and Company, priority 1978, dated 1980).
“And” between values parts separate entries of the source, which are not always exact repeats. Equal values may be shown once. Read-outs that look alike come from different tables or passages of the source.

What was measured:
[1] = tested on: experimental malignancies; settings: animals; cited from earlier work
tumor = settings: Owellen 1975; Cullinan 1975; cited from earlier work
P1534 murine leukemia = settings: Hargrove, Lloydia 1964, cited from earlier work
Gardner lymphosarcoma = experiment: Activity versus Gardner Lymphosarcoma in mice; assay type: in vivo; settings: 9 days, usually intraperitoneal
Method: The following table--Table 1--gives the results of experiments in which mice bearing transplanted Gardner lymphosarcoma were treated successfully with a compound of this invention. In the table, column 1 gives the name of the compound; column 2, the dose level and column 3, the percent inhibition of tumor growth.

P388 leukemia = experiment: Activity against P388 leukemia in mice; assay type: in vivo; settings: 3 days apart
pKa titration = assay type: physicochemical; settings: for pKa: 66 percent dmf, in 66 percent DMF
Method: A reaction mixture containing 450 mg. of leurosine, 15 ml. of tetrahydrofurane (THF), 8 ml. of anhydrous hydrazine, and 6 ml. of methanol were heated in a sealed glass bomb for 3 days at 50° C. The bomb was opened, the solvents removed in vacuo, and the resulting residue comprising 4-desacetylleurosine C-3 carboxhydrazide formed in the above reaction, was dissolved in methylene dichloride. The methylene dichloride solution was washed with water and dried. Removal of the solvent in vacuo yielded 4-desacetylleurosine C-3 carboxhydrazide as a residue shown by TLC to contain trace quantities of leurosine and of 4-desacetylleurosine. Pure 4-desacetylleurosine C-3 carboxhydrazide (1-spot material) was prepared by chromatographing the residue over silica using 1:1:1 methylenedichloride/ethyl acetate/methanol as the eluant. Fractions shown by TLC to contain 4-desacetylleurosine C-3 carboxhydrazide were combined.
Titration; pKa at 5.3, 7.0

[2] = Stability on standing in air; assay type: physicochemical; settings: upon standing in air
[3] = titration, free base, solvent not stated

For `CC[C@@]1(O)CN2CCc3c([nH]c4ccccc34)[C@@](C(=O)OC)(c3cc4c(cc3OC)N(C)[C@@H]3[C@]45CCN4CC=C[C@@](CC)(C[C@]3(O)C(=O)OC)[C@H]45)C[C@@H](C2)C1O` (stereo partly shown) [4-desacetoxy-3'-hydroxyvinblastine], the “activity in the treatment of experimental malignancies” value (shortened to “activity in the treatment”) [1] is given as “active”.
For `CCC1(O)CC2CN(CCc3c([nH]c4ccccc34)C(C(=O)OC)(c3cc4c(cc3OC)N(C)C3C(O)(C(=O)OC)C(O)C5(CC)C=CCN6CCC43C65)C2)C1` (stereo not shown) [4-desacetyl VLB], the anti-tumor activity (tumor) is listed as “active anti-tumor agent”, the toxicity (P1534 murine leukemia) is listed as “toxic material” and the “in vivo chemotherapeutic activity” value (P1534 murine leukemia; P1534 murine leukemia system) is listed as “little in vivo chemotherapeutic activity”.
In the case of `CCC12CN3CCc4c([nH]c5ccccc45)C(C(=O)OC)(c4cc5c(cc4OC)N(C)C4C(O)(C(=O)NC)C(O)C6(CC)C=CCN7CCC54C76)CC(C3)C1O2` (stereo not shown) [4-Desacetylleurosine C-3 N-Methyl Carboxamide], the “Percent Inhibition of tumor growth” value (Gardner lymphosarcoma; 3 mg/kg per day) is reported as 33%, the “Percent Inhibition of tumor growth” value (Gardner lymphosarcoma; 6 mg/kg per day) is reported as 100% and the “Toxicity (printed in Percent Inhibition column)” value (Gardner lymphosarcoma; 12 mg/kg per day) is reported as “Toxic”.
For `CCC12CN3CCc4c([nH]c5ccccc45)C(C(=O)OC)(c4cc5c(cc4OC)N(C)C4C(O)(C(=O)NCCO)C(O)C6(CC)C=CCN7CCC54C76)CC(C3)C1O2` (stereo not drawn) [4-Desacetylleurosine C-3 N-(β-hydroxyethyl)carboxamide], the “Percent Inhibition of tumor growth” value (Gardner lymphosarcoma; 6 mg/kg per day) was 100% and the “Percent Inhibition of tumor growth” value (Gardner lymphosarcoma; 12 mg/kg per day) was 100% and 98%.
For `CC[C@@H]1C[C@@H]2CN(CCc3c([nH]c4ccccc34)[C@@](C(=O)OC)(c3cc4c(cc3OC)N(C)[C@H]3[C@@](O)(C(=O)OC)[C@H](OC(C)=O)[C@]5(CC)C=CCN6CC[C@]43[C@@H]65)C2)C1` [deoxy VLB "A"], the “activity in the treatment” value [1] is given as “active”.
In the case of `CCC1(O)CN2CCc3c([nH]c4ccccc34)C(C(=O)OC)(c3cc4c(cc3OC)N(C)C3C(O)(C(=O)OC)C(OC(C)=O)C5(CC)C=CCN6CCC43C65)CC(C2)C1O` (stereo not shown) [vincadioline], the “activity in the treatment” value [1] is listed as “active”.
With `CCC12CN3CCc4c([nH]c5ccccc45)C(C(=O)OC)(c4cc5c(cc4OC)N(C)C4C(O)(C(=O)NCCSSCCNC(=O)C6(O)C(O)C7(CC)C=CCN8CCC9(c%10cc(C%11(C(=O)OC)CC%12CN(CCc%13c%11[nH]c%11ccccc%13%11)CC%11(CC)OC%12%11)c(OC)cc%10N(C)C69)C87)C(O)C6(CC)C=CCN7CCC54C76)CC(C3)C1O2` (stereo not drawn) [Bis[β-(4-desacetylleurosine C-3 carboxamide)ethyl]disulfide disulfate] the “prolongation of survival time” value (P388 leukemia; 15 mg/kg on three occasions) was 55% and the “prolongation of survival time” value (P388 leukemia; 30 mg/kg on three occasions) was 46%.
In the case of `CCC12CN3CCc4c([nH]c5ccccc45)C(C(=O)OC)(c4cc5c(cc4OC)N(C)C4C(O)(C(=O)NN)C(O)C6(CC)C=CCN7CCC54C76)CC(C3)C1O2` (stereo not shown) [4-desacetylleurosine C-3 carboxhydrazide, 4-Desacetylleurosine C-3 Carboxhydrazide], the pKa (pKa titration; read-out: pKa (first)) is reported as 5.32 and the pKa (pKa titration; read-out: pKa (second)) is reported as 7.12.
For `CCC1(O)CN2CCc3c([nH]c4ccccc34)C(C(=O)OC)(c3cc4c(cc3OC)N(C)C3C(O)(C(=O)OC)C(OC(C)=O)C5(CC)C=CCN6CCC43C65)CC(O)(C2)C1` (stereo not shown) [leurocolombine], the “activity in the treatment” value [1] is listed as “active”.
In the case of `CCC12CN3CCc4c([nH]c5ccccc45)C(C(=O)OC)(c4cc5c(cc4OC)N(C=O)C4C(O)(C(=O)OC)C(OC(C)=O)C6(CC)C=CCN7CCC54C76)CC(C3)C1O2` (stereo not shown) [leuroformine], the “activity in the treatment” value [1] is listed as “active”.
In the case of `CCC1(O)CC2CN(CCc3c([nH]c4ccccc34)C(C(=O)OC)(c3cc4c(cc3OC)N(C=O)C3C(O)(C(=O)OC)C(OC(C)=O)C5(CC)C=CCN6CCC43C65)C2)C1` (stereo not shown) [leurocristine], the “activity in the treatment” value [1] is listed as “active”.
In the case of `CCC1(O)CC2CN(CCc3c([nH]c4ccccc34)C(C(=O)OC)(c3cc4c(cc3OC)N(C)C3C(O)(C(=O)OC)C(OC(C)=O)C5(CC)C=CCN6CCC43C65)C2)C1` (stereo not shown) [vincaleukoblastine], the “activity in the treatment” value [1] is given as “active”.
In the case of `CCC12CN3CCc4c([nH]c5ccccc45)C(C(=O)OC)(c4cc5c(cc4OC)N(C)C4C(O)(C(=O)NCCSSCCNC(=O)C6(O)C(O)C7(CC)C=CCN8CCC9(c%10cc(C%11(C(=O)OC)CC%12CN(CCc%13c%11[nH]c%11ccccc%13%11)CC%11(CC)OC%12%11)c(OC)cc%10N(C)C69)C87)C(O)C6(CC)C=CCN7CCC54C76)CC(C3)C1O2` (stereo not drawn) [Bis[β-(4-desacetylleurosine C-3 carboxamido)ethyl]disulfide], the “pKa (first)” value (pKa titration; [3]) is reported as 5.3 and the “pKa (second)” value (pKa titration; [3]) is reported as 7.0.
With `CCC12CN3CCc4c([nH]c5ccccc45)C(C(=O)OC)(c4cc5c(cc4OC)N(C)C4C(O)(C(N)=O)C(O)C6(CC)C=CCN7CCC54C76)CC(C3)C1O2` (stereo not shown) [4-desacetylleurosine C-3 carboxamine, 4-Desacetylleurosine C-3 Carboxamide] the “Percent Inhibition of tumor growth” value (Gardner lymphosarcoma; 3 mg/kg per day) was 23%, the “Percent Inhibition of tumor growth” value (Gardner lymphosarcoma; 6 mg/kg per day) was 100% and the “Toxicity (printed in Percent Inhibition column)” value (Gardner lymphosarcoma; 12 mg/kg per day) was “Toxic”.
For `CC[C@]1(O)C[C@@H]2CN(CCc3c([nH]c4ccccc34)[C@@](C(=O)OC)(c3cc4c(cc3OC)N(C)[C@@H]3[C@]45CCN4CC=C[C@@](CC)(C[C@]3(O)C(=O)OC)[C@H]45)C2)C1` [4-desacetoxy vinblastine], the “activity in the treatment” value [1] is given as “active”.
For `CC[C@]12CN3CCc4c([nH]c5ccccc45)[C@@](C(=O)OC)(c4cc5c(cc4OC)N(C)[C@H]4[C@@](O)(C(=O)OC)[C@H](OC(C)=O)[C@]6(CC)C=CCN7CC[C@]54[C@@H]76)C[C@H](C3)[C@H]1O2` [leurosine], the auto-oxidation [2] is listed as “auto-oxidizes to a 5'-hydroxy derivative” and the “activity in the treatment” value [1] is listed as “active”.
For `CCC12CN3CCc4c([nH]c5ccccc45)C(C(=O)OC)(c4cc5c(cc4OC)N(C=O)C4C(O)(C(N)=O)C(O)C6(CC)C=CCN7CCC54C76)CC(C3)C1O2` (stereo not shown) [4-desacetylleuroformine C-3 carboxamide, 4-Desacetylleuroformine C-3 Carboxamide], the “Percent Inhibition of tumor growth” value (Gardner lymphosarcoma; 12 mg/kg per day) was 39%.
